{"source": "patent US11878972B2", "about": "“Treatment of neurological disorders” (TORQUR AG, priority 2016, dated 2024)", "key": {"[1]": {"test_system": "51Q-HTT-Exon1-eGFP transfected HEK cells", "test": "Immune cytochemistry, count of mutHTT aggregates", "format": "cell-based, human", "settings": "Cpd. 8 130 nM, Cpd. 3 400 nM", "experimental": "HEK cells were transiently transfected with pcDNA3.1/V5-His vector from Clontech (Mountain View, USA) containing the expression sequence for Exon1 of HTT with a 19Q (no aggregation) or 51Q extension and enhanced green fluorescence protein (eGFP) tag using Attractene Transfection Reagent (Qiagen, Netherlands). 1×10^6 cells were seeded in a 6 well plate. On the next day 2 μg DNA were mixed with 95.5 μl transfection media and 4.5 μl transfection reagent. After an incubation time of 15 min the mixture was added to the cells. After 72 hours cells were harvested or fixed for analysis.\nHEK cells were seeded in poly-L-lysine (Sigma-Aldrich, USA) coated coverslips in 24 well plates at 10^4 cells per well and transiently transfected with 19Q- or 51Q-HTT-Exon1-eGFP. Cells were treated with Compounds as described under A for 8 or 24 hours. This incubation ended 72 hours after transfection. Cells were fixed with 4% (para-formaldehyde) PFA. Coverslips were fixed glass slides using mounting media that contained 4′,6-Diamidin-2-phenylindol (DAPI) (FIG. 7C). Nuclei and aggregates containing HTT-Exon1-eGFP were counted manually. 10 000 cells were counted per sample (FIG. 7D)."}, "[2]": {"test_system": "mTOR signaling (S6rP and 4E-BP phosphorylation) in STHdh^Q7/Q7 and STHdh^Q111/Q111 cells", "test": "mTOR signaling in STHdh cells (western blot)", "format": "cell-based, mouse", "settings": "4 hours", "protocol": "8 inhibit mTOR signaling and induce autophagy in neuronal cell models of HD, treatment of STHdh^Q111/Q111 and STHdh^Q7/Q7 cells was employed. […] Cells were seeded in 10 cm dishes. When cells were about 80% confluent, cells were differentiated and treated with compounds at the same time. […] At the end of incubation time cells were washed with cold PBS buffer and lysed with 200 μl of RIPA buffer supplemented with 4% Complete protease inhibitor (Roche, Switzerland) and 10% PhosStop (Roche, Switzerland). After 30 min of incubation on ice, lysates were vortexed, centrifuged (20 min, 4° C., 16000 rpm) and supernatants were collected. […] 30 μg of protein per sample was analyzed by western blot as described above using the following primary antibodies:"}, "PK in B57BL/6J mice": {"test": "PK in B57BL/6J mice", "settings": "for half-life: B57BL/6J, in vivo", "protocol": "8, 50 mg/kg was administered to B57BL/6J mice by gavage. Animals were housed in temperature controlled rooms with free access to food and water. Test items were weighed in a glass vial and dissolved first in DMSO. Tween 80 was added subsequently and finally, the formulation was completed with HPβCD 20%. […] Blood was collected in tubes containing K3-EDTA and stored on ice until centrifugation at 3000×g (10 min. 4° C.). The plasma supernatant was separated and kept at −20° C. until being assayed. Thigh muscle and brain of mice were snap frozen. The brain and muscle samples were homogenized in PBS using the Precellys 24/Dual homogeniser.\nSamples were analyzed by LC-MS. Calibration standards were prepared by spiking 20 μl of drug free blank plasma with calibration solution. […] Samples were vigorously shaken and centrifuged for 10 minutes at 6000 g and 20° C. […] An aliquot was transferred to 200 μl sampler vials and subsequently subjected to LC-MS with an injection volume of 1.5 μl."}, "[3]": {"test_system": "STHdh^Q7/Q7 and STHdh^Q111/Q111 cells", "test": "LDH assay (cytotoxicity)", "settings": "for LDH activity compared to control: at higher concentrations; for LDH production: time points between 24 h and 48 h", "protocol": "Cytotoxicity of test compounds was measured using the lactate dehydrogenase (LDH) assay from Roche, Switzerland according to the manufacturer's instructions.\nSTHdh^Q111/Q111 and STHdh^Q7/Q7 (Coriell Institute for Medical Research, USA) were cultured in DMEM (Invitrogen, USA) supplemented with FBS (Invitrogen, USA) 10%, Geniticine (G418, Biochrom, Germany)) 1% und antibiotic antimycotic (Invitrogen, USA) 1% in a humidified incubator at 37° C. and 5% CO2. […] 10^4 STHdh^Q7/Q7 and STHdh^Q111/Q111 cells per well were seeded in a 96 well plate incubated with Cpd."}, "[4]": {"test": "R6/2 pharmacokinetics (plasma, striatum, cerebellum, cortex)", "format": "in vivo, mouse", "settings": "R6/2 mice, single oral dose, one hour; Cpd. 3 75, 50, 25 mg/kg; Cpd. 8 25, 16, 8 mg/kg", "experimental": "In order to test exposure of brain areas, R6/2 mice were treated with a single oral dose of Cpd. 3 (75 mg/kg, 50 mg/kg, 25 mg/kg) or Cpd. 8 (25 mg/kg, 16 mg/kg, 8 mg/kg), 3 animals per group. After one hour plasma was collected and animals were sacrificed. Striatum, cerebellum and cortex was separately snap frozen and analyzed for compound concentration using LC/MS/MS."}, "[5]": {"test": "Maximal tolerated dose (MTD) / tolerability in BALB/c nude mice", "format": "in vivo", "settings": "for MTD: female, BALB/c nude, mouse, in vivo, po", "experimental": "In order to find a dose that could be used for further experiments and in order to show tolerability of compounds of the present invention, female BALB/c nude mice were treated with Cpd. 3 and Cpd. 8 by per oral (p.o.) gavage twice for five days with a two day dose holiday in between. Compounds were administered in the following vehicle: 20% Hydroxypropyl-β-cyclodextrin (HPBCD), 10% DMSO and 70% water. The major endpoint was to evaluate the body weight loss and animal survival. The body weights were recorded daily for the dosing days and at least twice weekly thereafter. The animal death was checked daily for survival. Animals were to be evaluated for 7 days post the final dose. The tolerated dose was defined as the dose that results in less than 20% mean body-weight loss, and no treatment related death during the study. The randomized block design was used to assign experimental animals to groups. First, the experimental animals were divided into homogeneous blocks according to their initial body weight. Secondly, within each block, randomization of experimental animals to treatments was conducted.\nAnimal supplier: Shanghai Lingchang Bio-Technology Co. Ltd (LC, Shanghai, China). Animal Certificate No.: 2013001803305. The mice were kept in individual ventilated cage (IVC) systems at constant temperature and humidity with 5 animals in each cage.\nDiet: Mouse diet, C060 irradiation sterilized dry granule food. Animals had free access during the entire study period. Water: RO water, autoclaved before using. Animals had free access to sterile drinking water.\nOVCAR-3 and SUDHL/6 tumor bearing BALB/c nude mice were treated with Cpd. 3, p.o. at 100 mg/kg for 21 or 15 consecutive days, respectively under the same conditions. Body weight of the mice was stable."}, "[6]": {"test_system": "pS6 S235/S236 in A2058 cells", "test": "In-cell Western blot, pS6 S235/S236", "format": "cell-based", "settings": "Homo sapiens, A2058, 1 h, treated for 1 hour, normalized to α-tubulin", "protocol": "Cells are fixed with 4% paraformaldehyde for 30 minutes at room temperature, washed 2 times with 1% BSA in PBS, permeabilized with 0.1% Triton X-100 in PBS/1% BSA for 30 minutes at room temperature and blocked with 5% goat serum in PBS/1% BSA/0.1% Triton X-100 for 30 minutes at room temperature. […] Cells are washed 3 times 5 minutes with PBS/1% BSA/0.1% triton and plate scanned with the Odyssey Infrared Scanning system using both 700 and 800 nm channels. […] To correct for background staining in the data analysis wells are treated only with secondary antibodies.\nFor data analysis the mean background signal from channel 700 nm and 800 nm are subtracted from each signal in channel 700 nm and 800 nm, respectively.\nIC50 values of each compound are determined by plotting the normalized pPBK S473 and pS6 S235/S236 signals, respectively, versus the compound concentrations (in logarithmic scale) and then by fitting a sigmoidal dose-response curve with variable slope to the data using GraphPad™ Prism."}, "[7]": {"test_system": "mTOR signaling cascade (phosphorylation of S6rP and AKT)", "test": "Target engagement in brain and thigh muscle (western blot)", "format": "in vivo, mouse", "settings": "single oral 50 mg/kg", "experimental": "Tissue was snap frozen in liquid nitrogen and stored at −80° C. Tissue was thawed and lysed in RIPA buffer 1 ml/half brain. Complete protease inhibitor and PhosStop phosphatase inhibitor (Roche) was added to the buffer before lysis. Tissue was homogenized manually and centrifuged twice at 16000 rpm, 4° C. for 20 minutes. Supernatant was frozen with 10% glycerol at −80° C. Protein concentration was performed using Bradford reagent. For western blot analysis of AKT and S6rP phosphorylation, 30 μg of protein was denatured with β-mercaptoethanol at 95° C. and separated on SDS page gels at 100 V. Then proteins were transferred to a nitrocellulose membrane (Bio-Rad, USA) at 80 V. Non-specific binding was blocked with 5% bovine serum albumin (BSA) (Sigma-Aldrich, USA). Membranes were incubated over night with primary antibody dissolved in TBST, 5% BSA at 4° C. and with secondary antibody coupled to horseradish peroxidase (GE Healthcare, UK) for 1 hour at RT and washed. Imaging of protein bands was performed using Luminol (Biozym, Hamburg, Germany. On a Li-Cor Odyssey FC reader. Quantification of S6-phosphorylation was determined with the same imaging system.\nThe following antibodies were used: • AKT, P-AKT (S473), S6rP, P-S6rP(S235/236): Cell Signaling (UK) • β-actin: Sigma Aldrich, USA"}}, "note": "Read-outs that look alike come from different tables or passages of the source.", "data": [{"smiles": "C[C@H]1COCCN1c1nc(-c2cnc(N)cc2C(F)F)nc(N2CCOCC2)n1", "note": "[Compound 8, (S)-4-(difluoromethyl)-5-(4-(3-methylmorpholino)-6-morpholino-1,3,5-triazin-2-yl)pyridin-2-amine]", "values": [{"measurement": "reduction of number of mutHTT aggregates", "setting": "[1]; 8 hours of treatment", "result": 55, "unit": "%"}, {"measurement": "reduction of number of mutHTT aggregates", "setting": "[1]; 24 hours of treatment", "result": 77, "unit": "%"}, {"measurement": "low concentration at which an effect on mTOR signaling could already be observed", "setting": "[2]; STHdh^Q7/Q7 cells", "result": 130, "unit": "nM"}, {"measurement": "half-life", "setting": "PK in B57BL/6J mice; mouse, oral, 50 mg/kg, half-life, as stated in the discussion of the Tsc1 GFAP study", "result": 5, "unit": "h"}, {"measurement": "half-life", "setting": "PK in B57BL/6J mice; mouse, po, 50 mg/kg, half-life in mice (estimated), mice, single oral 50 mg/kg", "result": "4.7 to 4.8", "unit": "h"}, {"measurement": "oral bioavailability", "setting": "PK in B57BL/6J mice; mice, single oral 50 mg/kg", "result": "good oral bioavailability"}, {"measurement": "LDH activity compared to control", "setting": "[3]", "result": "decreased compared to control"}, {"measurement": "LDH production", "setting": "[3]", "result": "reduced LDH production"}, {"measurement": "Tissue concentrations reached", "setting": "[4]", "result": "sufficient levels were reached at all concentrations"}, {"measurement": "MTD", "setting": "[5]", "result": 25, "unit": "mg/kg"}, {"measurement": "IC50", "setting": "[6]", "result": 68, "unit": "nM"}]}, {"smiles": "Nc1cc(C(F)F)c(-c2nc(N3C4CCC3COC4)nc(N3C4CCC3COC4)n2)cn1", "note": "[Compound 3, 5-(4-(3-oxa-8-azabicyclo[3.2.1]octan-8-yl)-6-(3-oxa-8-azabicyclo[3.2.1]octan-8-yl)-1,3,5-triazin-2-yl)-4-(difluoromethyl)pyridin-2-amine]", "values": [{"measurement": "reduction of number of mutHTT aggregates", "setting": "[1]; 8 hours of treatment", "result": 66, "unit": "%"}, {"measurement": "reduction of number of mutHTT aggregates", "setting": "[1]; 24 hours of treatment", "result": 73, "unit": "%"}, {"measurement": "mTOR signaling (S6rP phosphorylation and 4E-BP phosphorylation)", "setting": "[2]; Cpd. 3 200, 400, 1230 nM, Cpd. 8 130, 1230 nM, INK128 100 nM, rapamycin 400 nM", "result": "reduced S6rP phosphorylation and 4E-BP phosphorylation"}, {"measurement": "Brain AUC", "setting": "PK in B57BL/6J mice; mouse, po, 50 mg/kg, single", "result": 30600, "unit": "ng·h/mL"}, {"measurement": "Brain Cmax", "setting": "PK in B57BL/6J mice; mouse, po, 50 mg/kg, single", "result": 7.7, "unit": "µg/g"}, {"measurement": "LDH activity compared to control", "setting": "[3]", "result": "decreased compared to control"}, {"measurement": "LDH production", "setting": "[3]", "result": "reduced LDH production"}, {"measurement": "phosphorylation of S6rP and AKT in brain and thigh muscle", "setting": "[7]; B57BL/6J mice", "result": "significantly reduced phosphorylation of S6rP and AKT"}, {"measurement": "S6 phosphorylation in brain lysates", "setting": "[7]; mice, 30 minutes to 8 hours", "result": "reduction of S6 phosphorylation"}, {"measurement": "S6 phosphorylation in thigh muscle lysates", "setting": "[7]; mice, 30 minutes to 8 hours", "result": "reduction of S6 phosphorylation"}, {"measurement": "Tissue concentrations reached", "setting": "[4]", "result": "well in the efficacious range"}, {"measurement": "Body weight of the mice", "setting": "[5]; OVCAR-3 and SUDHL/6 tumor bearing BALB/c nude mice, p.o. 100 mg/kg for 21 or 15 consecutive days", "result": "stable"}, {"measurement": "MTD", "setting": "[5]; BALB/c mice, p.o., twice for five days with a two day dose holiday, read-out: MTD", "result": 100, "unit": "mg/kg"}]}]}
